Experimental data from PubChem BioAssay (NCI).
Where “and” joins values, the source holds several entries; their conditions need not be identical. Equal values may be shown once.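 Method: 48-hour compound exposure of cells in 96-well plates, five concentrations, linear interpolation of endpoints. Here, GI50 denotes the concentration required for 50% inhibition of growth. Definition used: TGI = concentration required for complete inhibition of growth.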

Tests used:
Test in all cases: growth of human tumour cells (NCI), 48 h
HCT-116 colon = tested on: HCT-116 colon
UO-31 renal = tested on: UO-31 renal
CCRF-CEM leukemia = tested on: CCRF-CEM leukemia
OVCAR-5 ovarian = tested on: OVCAR-5 ovarian
KM12 colon = tested on: KM12 colon
TK-10 renal = tested on: TK-10 renal
OVCAR-3 ovarian = tested on: OVCAR-3 ovarian
M14 melanoma = tested on: M14 melanoma
SR leukemia = tested on: SR leukemia
NCI-H522 lung = tested on: NCI-H522 lung

SMILES	TGI (HCT-116 colon)	TGI (UO-31 renal)	TGI (CCRF-CEM leukemia) [µM]	TGI (OVCAR-5 ovarian)	TGI (KM12 colon)	TGI (TK-10 renal)	TGI (OVCAR-3 ovarian)	TGI (M14 melanoma)	TGI (SR leukemia) [µM]	TGI (NCI-H522 lung) [µM]	GI50 (HCT-116 colon)	GI50 (UO-31 renal)	GI50 (CCRF-CEM leukemia) [µM]	GI50 (OVCAR-5 ovarian)	GI50 (KM12 colon)	GI50 (TK-10 renal)	GI50 (OVCAR-3 ovarian)	GI50 (M14 melanoma)	GI50 (SR leukemia)	GI50 (NCI-H522 lung) [µM]
COc1ccc2c(c1)Cc1cc(N=[N+]([O-])c3ccc4c(c3)Cc3cc(OC)ccc3-4)ccc1-2	> 100 µM	> 100 µM	> 100	> 100 µM	> 100 µM	> 100 µM	> 100 µM	> 100 µM	41.5	30.3	–	–	–	–	–	–	–	–	–	–
N#CC1(Cc2ccccc2Cl)c2ccccc2C=CN1C(=O)c1ccccc1 (stereo not given)	> 100 µM	> 100 µM	> 100	> 100 µM	> 100 µM	> 100 µM	> 100 µM	> 100 µM	> 100	> 100	–	–	–	–	–	–	–	–	–	–
COC1=C(NC(C)=O)C(=O)c2nc3n(c2C1=O)CCC3	29.4 µM	47.1 µM	14.1	34.6 µM	> 57.8 µM	> 66.6 µM	30.3 µM	32.8 µM	> 86.2	40.1	–	–	–	–	–	–	–	–	–	–
COc1cc(OC)c(Oc2cccc(OC)c2OC)c(OC)c1	> 100 µM	> 100 µM	> 100	> 100 µM	> 100 µM	> 100 µM	> 100 µM	> 100 µM	> 100	> 100	–	–	–	–	–	–	–	–	–	–
CCCCCc1c(C)[nH]c(/C=C2\N=C(c3ccc[nH]3)C=C2Oc2ccc(OC)cc2)c1C	1.13 µM and 0.127 µM	0.313 µM and 0.232 µM	> 100	4.56 µM and 2.02 µM	0.622 µM and 0.185 µM	1.69 µM and 0.331 µM	0.511 µM and 0.318 µM	0.458 µM and 0.0635 µM	–	0.19	0.0373 µM and 0.0269 µM	0.151 µM and 0.0712 µM	0.0257	0.128 µM and 0.0591 µM	0.0555 µM and 0.0314 µM	0.335 µM and 0.0439 µM	0.156 µM and 0.0414 µM	0.167 µM and 0.0234 µM	0.0321 µM and 0.0291 µM	0.0135
CC(C)n1c2c(c3ccccc3c1=O)C(=O)c1ccccc1-2	> 100 µM	> 100 µM	> 100	> 100 µM	> 100 µM	> 100 µM	> 100 µM	> 100 µM	> 100	> 100	–	–	–	–	–	–	–	–	–	–
O=C(/C=C(\O)C(=O)O)/C=C(\O)c1ccc(Cl)cc1	> 100 µM	> 100 µM	> 100	> 100 µM	> 100 µM	> 100 µM	> 100 µM	> 100 µM	> 100	> 100	–	–	–	–	–	–	–	–	–	–
O=C(Nc1ccc(Cl)cc1Cl)c1c/c(=N\O)c2ccc(O)cc2o1	> 100 µM	> 100 µM	> 100	> 100 µM	> 100 µM	> 100 µM	> 100 µM	> 100 µM	> 100	> 100	–	–	–	–	–	–	–	–	–	–
O=C(c1ccc(Cl)cc1)N(C(=S)N1CCN(c2ccccc2)CC1)C1CCCCC1	> 100 µM	> 100 µM	> 100	> 100 µM	> 100 µM	> 100 µM	> 100 µM	> 100 µM	> 100	> 100	–	–	–	–	–	–	–	–	–	–
COc1ccc(-c2ccc(/C=N/n3cnn(CN4CCN(C)CC4)c3=S)o2)c([N+](=O)[O-])c1	–	> 100 µM	94.7	> 100 µM	> 100 µM	> 100 µM	66.9 µM	60.7 µM	> 100	> 100	–	83.9 µM	11.6	34 µM	33.3 µM	36.4 µM	26.7 µM	14.2 µM	31.5 µM	45
COC(=O)c1nc(N)[nH]c(=O)c1-c1ccc(Cl)cc1	> 100 µM	> 100 µM	> 100	> 100 µM	> 100 µM	> 100 µM	> 100 µM	> 100 µM	> 86.6	> 100	–	–	–	–	–	–	–	–	–	–
CC(=O)c1c[nH]c2ccc(-c3ccnc(Nc4ccc(NC(=O)c5cccc(F)c5)c(CN5CCOCC5)c4)n3)cc12	14.7 µM	1.75 µM	> 100	1.06 µM	1.35 µM	1.95 µM	0.932 µM	0.794 µM	> 100	1.61	0.0608 µM	0.0961 µM	0.134	0.129 µM	0.0892 µM	0.268 µM	0.0955 µM	0.188 µM	0.0363 µM	0.234
Cc1c(Br)cccc1NC(=O)c1sc2nc3c(cc2c1N)CN(Cc1ccccc1)CC3	5.58 µM	> 50 µM	> 50	> 50 µM	10.2 µM	16.1 µM	0.773 µM	0.386 µM	> 50	> 50	0.182 µM	0.412 µM	0.182	0.289 µM	0.168 µM	1.19 µM	0.157 µM	0.107 µM	0.107 µM	0.108
Oc1ccc(Br)cc1CN1CCN(Cc2ccc(Cl)cc2)CC1	> 100 µM	> 100 µM	> 100	75.2 µM	> 100 µM	> 100 µM	> 100 µM	–	80.9	39.2	21.1 µM	9.5 µM	24.3	21.2 µM	26.3 µM	24.8 µM	26.3 µM	–	19.1 µM	13.3
COc1ccc(-c2cc(-c3ccco3)c(C#N)c(=O)n2C2OC(OC(=O)c3ccccc3)C(OC(=O)c3ccccc3)C2OC(=O)c2ccccc2)cc1 (stereo not given)	> 100 µM	> 100 µM	> 100	> 100 µM	> 100 µM	54.7 µM	> 100 µM	> 100 µM	> 100	> 100	–	–	–	–	–	–	–	–	–	–
CC([C@H]1CCC2C3CCC4C(=O)C(NC=O)=CC[C@]4(C)C3CC[C@@]21C)N(C)C (stereo not given in full)	3.95 µM	7.4 µM	18.7	24.9 µM	14.2 µM	29.4 µM	10.2 µM	4.39 µM	6.5	> 31.2	1.42 µM	1.98 µM	3.24	8.45 µM	2.88 µM	9.71 µM	2.7 µM	2.08 µM	1.03 µM	8.2
